Reference: article PMC9688344, “[^225Ac]Ac-SibuDAB for Targeted Alpha Therapy of Prostate Cancer: Preclinical Evaluation and Comparison with [^225Ac]Ac-PSMA-617” (Cancers, 2022)
Read-outs that look alike come from different tables or passages of the source.

What was measured:
[1] = test system: PC3-PIP/flu tumor-bearing mice; assay: Biodistribution studies; assay type: in vivo, BALB/c nude mice; settings: 48 h p.i.
[2] = test system: PSMA-positive PC-3 PIP tumor xenografts; assay: Therapy study in PC-3 PIP tumor-bearing mice; assay type: in vivo, BALB/c nude mice; settings: 10 MBq
Procedure: Five days after subcutaneous inoculation of four groups of mice with either PC-3 PIP or PC-3 flu tumor cells on the right shoulder (4 × 10^6 cells in 100 μL HBSS), the mice were intravenously injected with either vehicle only (saline with 0.05% BSA, n = 6 and n = 4, respectively) or with 30 kBq [^225Ac]Ac-SibuDAB (1 nmol per mouse; n = 4 per group) diluted in vehicle (Table 1).
After tumor cell inoculation, mice bearing PC-3 PIP tumor xenografts were intravenously injected with vehicle only (n = 6) or with [^225Ac]Ac-SibuDAB or [^225Ac]Ac-PSMA-617, respectively, applied at 5 kBq or 10 kBq (1 nmol per mouse; n = 6 per group; Table 1). The control group consisted of mice from several studies (n = 12 mice) and the data from this group were published previously.
After administration of the radioligands, the mice were monitored over 8 weeks using the same measures as previously published by Umbricht et al.. The relative body mass was defined as [BMx/BM0], where BMx is the body mass in grams at a given Day x and BM0 is the body mass in grams at Day 0. The tumor dimension was determined by measuring the longest tumor axis (L) and its perpendicular axis (W) with a digital caliper. The tumor volume (V) was calculated according to the equation [V = 0.5 × (LW^2)]. The relative tumor volume was defined as [TVx/TV0], where TVx is the tumor volume in mm^3 at a given Day x, and TV0 is the tumor volume in mm^3 at Day 0. Endpoint criteria that required euthanasia were defined as (i) body mass loss of >15%, (ii) a tumor volume of >800 mm^3, (iii) a combination of body mass loss of >10% and a tumor volume of >700 mm^3 or, (iv) signs of unease and pain or a combination thereof using a scoring system as previously reported. The median survival of mice of each group was assessed with Kaplan–Meier curves. Potential early side effects for mice that survived until study end were determined based on blood chemistry and organ-to-brain mass ratios on Day 56 by comparison to values obtained from an additional group of therapy-naïve mice (n = 4) without tumors but of the same age (Supplementary Material: Section S9).
Table S10. Biodistribution data and tumor-to-background ratios obtained in PC3-PIP/flu tumor-bearing mice 48 h after injection of [225Ac]Ac-SibuDAB, [177Lu]Lu-SibuDAB, [225Ac]Ac-PSMA-617 or [177Lu]Lu-PSMA-617. Decay-corrected data of accumulated activity are shown as [% IA/g]-values, representing the average ± SD.
Biodistribution data at 48 h p.i.
1 Data of [177Lu]Lu-PSMA-617 were previously published by Benešová et al., Mol Pharm 2018 [2]; Copyright 2018, American Chemical Society.
Purpose: In order to determine the therapeutic efficacy of [225Ac]Ac-SibuDAB in com-parison to [225Ac]Ac-PSMA-617 as well as the 177Lu-labeled counterparts, therapy studies were conducted in PC-3 PIP xenograft-bearing BALB/c nude mice.
Methods: The methods of the therapy study to assess the therapeutic efficacy of [225Ac]Ac-SibuDAB are reported in the main manuscript. An additional group of mice was treated with 10 MBq (1 nmol) [177Lu]Lu-SibuDAB under the same experimental condi-tions. Data previously acquired by our group for mice treated with 5 MBq [177Lu]Lu-SibuDAB were published by Borgna & Deberle et al. and data of mice treated with 5 MBq or 10 MBq [177Lu]Lu-PSMA-617 were previously published by Tschan et al. and Umbricht et al., respectively.
Results: The assessment of the PSMA-specific therapeutic effect of [225Ac]Ac-SibuDAB as well as the comparison to [225Ac]Ac-PSMA-617 are described in the main ar-ticle. The body mass of effectively treated mice, in which the tumor disappeared entirely […]
tumor-bearing mice that were treated with only vehicle as well as for some mice that were treated with 5 kBq or 10 kBq [225Ac]Ac-PSMA-617 and experienced a relapse in tumor

PSMA = target: T1, PSMA (Homo sapiens, UniProt Q04609); settings: ref Borgna & Deberle et al., Mol Pharm 2022; cited from earlier work
T1 construct: expressed in transfected cells; host or cells: PC-3 PIP prostate cancer cells (transduced to express PSMA), provided by Prof; Dr. Martin Pomper, Johns Hopkins University

[3] = cited from earlier work
[4] = test system: PSMA-positive PC-3 PIP cells; settings: 4 h incubation; ref Borgna & Deberle et al., Mol Pharm 2022; cited from earlier work
[5] = test system: PC3-PIP/flu tumor-bearing mice; settings: ref Borgna & Deberle et al., Mol Pharm 2022, cited from earlier work
[6] = test system: PSMA-positive PC-3 PIP tumor xenografts; design: method as in Borgna & Deberle et al., Mol Pharm 2022; settings: 5 MBq, ref Borgna & Deberle et al., Mol Pharm 2022; cited from earlier work

T1 sequence (Q04609 whole entry): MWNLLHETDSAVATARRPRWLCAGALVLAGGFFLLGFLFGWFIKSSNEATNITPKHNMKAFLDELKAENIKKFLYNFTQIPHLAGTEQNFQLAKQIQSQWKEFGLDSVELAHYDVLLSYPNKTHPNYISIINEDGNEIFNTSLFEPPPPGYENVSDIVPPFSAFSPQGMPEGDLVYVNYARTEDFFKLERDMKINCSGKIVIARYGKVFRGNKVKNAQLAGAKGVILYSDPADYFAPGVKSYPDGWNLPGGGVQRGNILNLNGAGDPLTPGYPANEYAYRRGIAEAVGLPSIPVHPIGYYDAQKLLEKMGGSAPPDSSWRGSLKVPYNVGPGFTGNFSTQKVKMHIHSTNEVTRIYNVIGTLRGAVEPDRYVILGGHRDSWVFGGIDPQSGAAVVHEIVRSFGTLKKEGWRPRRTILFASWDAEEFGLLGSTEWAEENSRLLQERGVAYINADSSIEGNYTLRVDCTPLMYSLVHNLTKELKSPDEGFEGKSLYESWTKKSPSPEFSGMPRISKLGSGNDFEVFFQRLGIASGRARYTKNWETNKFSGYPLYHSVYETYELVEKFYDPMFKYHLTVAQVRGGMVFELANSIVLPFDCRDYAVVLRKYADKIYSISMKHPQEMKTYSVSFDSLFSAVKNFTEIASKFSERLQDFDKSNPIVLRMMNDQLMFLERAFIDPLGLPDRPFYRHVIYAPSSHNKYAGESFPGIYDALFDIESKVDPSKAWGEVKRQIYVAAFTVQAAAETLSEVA

**Q.** What does the source list for `CC(C)Cc1ccc(C(C)C(=O)NC(CCN)C(=O)NCCCCC(NC(=O)CN2CCN(CC(=O)[O-])CCN(CC(=O)[O-])CCN(CC(=O)[O-])CC2)C(=O)NCC2CCC(C(=O)NC(Cc3ccc4ccccc4c3)C(=O)NCCCCC(NC(=O)NC(CCC(=O)O)C(=O)O)C(=O)O)CC2)cc1.[177Lu+3]` (stereo not shown) [[^177Lu]Lu-SibuDAB]?
**A.** Blood, accumulated activity [1]: 0.27 ± 0.04 % IA/g; Bone, accumulated activity [1]: ≤ 0.10 % IA/g; Heart, accumulated activity [1]: 0.14 ± 0.02 % IA/g; Intestines, accumulated activity [1]: 0.10 ± 0.03 % IA/g; Kidneys, accumulated activity [1]: 3.5 ± 0.7 % IA/g; Liver, accumulated activity [1]: 0.44 ± 0.06 % IA/g; Lung, accumulated activity [1]: 0.33 ± 0.07 % IA/g; Muscle, accumulated activity [1]: 0.07 ± 0.02 % IA/g; PC-3 PIP tumor, accumulated activity [1]: 69 ± 12 % IA/g; PC-3 flu tumor, accumulated activity [1]: 0.30 ± 0.07 % IA/g; Salivary glands, accumulated activity [1]: 0.18 ± 0.05 % IA/g; Spleen, accumulated activity [1]: 0.43 ± 0.10 % IA/g; Stomach, accumulated activity [1]: 0.12 ± 0.06 % IA/g; Tumor-to-blood ratio [1]: 252 ± 24; Tumor-to-kidney ratio [1]: 20 ± 2; Tumor-to-liver ratio [1]: 157 ± 14; mice whose tumor xenografts disappeared completely without relapse until Day 56 [2]: five out of six; start of tumor regrowth in the other mice [2]: ~ 7 weeks; mice whose tumor xenografts disappeared completely without relapse until Day 56 ([2]; listed as [177Lu]Lu-SibuDAB): five out; Kd (PSMA): 27 nM; logD value [3]: −2.3 ± 0.1; Cell uptake [4]: 53 ± 1%; Internalized fraction [4]: 15 ± 2%; Blood, accumulated activity ([5]; 1 h p.i.): 17 ± 2 % IA/g; Bone, accumulated activity ([5]; 1 h p.i.): 2.1 ± 0.3 % IA/g; Heart, accumulated activity ([5]; 1 h p.i.): 5.3 ± 0.8 % IA/g; Intestines, accumulated activity ([5]; 1 h p.i.): 1.8 ± 0.3 % IA/g; Kidneys, accumulated activity ([5]; 1 h p.i.): 22 ± 5 % IA/g; Liver, accumulated activity ([5]; 1 h p.i.): 3.5 ± 0.6 % IA/g; Lung, accumulated activity ([5]; 1 h p.i.): 12 ± 2 % IA/g; Muscle, accumulated activity ([5]; 1 h p.i.): 1.9 ± 0.3 % IA/g; PC-3 PIP tumor, accumulated activity ([5]; 1 h p.i.): 38 ± 7 % IA/g; PC-3 flu tumor, accumulated activity ([5]; 1 h p.i.): 2.7 ± 0.4 % IA/g; Salivary glands, accumulated activity ([5]; 1 h p.i.): 3.5 ± 0.4 % IA/g; Spleen, accumulated activity ([5]; 1 h p.i.): 3.0 ± 0.4 % IA/g; Stomach, accumulated activity ([5]; 1 h p.i.): 1.5 ± 0.4 % IA/g; Tumor-to-blood ratio ([5]; 1 h p.i.): 2.3 ± 0.5; Tumor-to-kidney ratio ([5]; 1 h p.i.): 1.7 ± 0.3; Tumor-to-liver ratio ([5]; 1 h p.i.): 11 ± 2; Blood, accumulated activity ([5]; 4 h p.i.): 2.9 ± 1.9 % IA/g; Bone, accumulated activity ([5]; 4 h p.i.): 0.49 ± 0.27 % IA/g; Heart, accumulated activity ([5]; 4 h p.i.): 1.1 ± 0.7 % IA/g; Intestines, accumulated activity ([5]; 4 h p.i.): 0.46 ± 0.23 % IA/g; Kidneys, accumulated activity ([5]; 4 h p.i.): 12 ± 3 % IA/g; Liver, accumulated activity ([5]; 4 h p.i.): 1.3 ± 0.5 % IA/g; Lung, accumulated activity ([5]; 4 h p.i.): 3.1 ± 2.8 % IA/g; Muscle, accumulated activity ([5]; 4 h p.i.): 0.39 ± 0.22 % IA/g; PC-3 PIP tumor, accumulated activity ([5]; 4 h p.i.): 66 ± 11 % IA/g; PC-3 flu tumor, accumulated activity ([5]; 4 h p.i.): 0.95 ± 0.71 % IA/g; Salivary glands, accumulated activity ([5]; 4 h p.i.): 0.82 ± 0.43 % IA/g; Spleen, accumulated activity ([5]; 4 h p.i.): 1.1 ± 0.6 % IA/g; Stomach, accumulated activity ([5]; 4 h p.i.): 0.49 ± 0.29 % IA/g; Tumor-to-blood ratio ([5]; 4 h p.i.): 49 ± 51; Tumor-to-kidney ratio ([5]; 4 h p.i.): 5.5 ± 1.5; Tumor-to-liver ratio ([5]; 4 h p.i.): 61 ± 29; Blood, accumulated activity ([5]; 24 h p.i.): 0.26 ± 0.08 % IA/g; Bone, accumulated activity ([5]; 24 h p.i.): 0.11 ± 0.04 % IA/g; Heart, accumulated activity ([5]; 24 h p.i.): 0.15 ± 0.05 % IA/g; Intestines, accumulated activity ([5]; 24 h p.i.): 0.13 ± 0.06 % IA/g; Kidneys, accumulated activity ([5]; 24 h p.i.): 4.3 ± 1.0 % IA/g; Liver, accumulated activity ([5]; 24 h p.i.): 0.54 ± 0.18 % IA/g; Lung, accumulated activity ([5]; 24 h p.i.): 0.31 ± 0.10 % IA/g; Muscle, accumulated activity ([5]; 24 h p.i.): ≤ 0.10 % IA/g; PC-3 PIP tumor, accumulated activity ([5]; 24 h p.i.): 62 ± 18 % IA/g; PC-3 flu tumor, accumulated activity ([5]; 24 h p.i.): 0.38 ± 0.09 % IA/g; Salivary glands, accumulated activity ([5]; 24 h p.i.): 0.18 ± 0.05 % IA/g; Spleen, accumulated activity ([5]; 24 h p.i.): 0.40 ± 0.13 % IA/g; Stomach, accumulated activity ([5]; 24 h p.i.): 0.12 ± 0.06 % IA/g; Tumor-to-blood ratio ([5]; 24 h p.i.): 247 ± 34; Tumor-to-kidney ratio ([5]; 24 h p.i.): 14 ± 1; Tumor-to-liver ratio ([5]; 24 h p.i.): 117 ± 14; mice whose tumor xenografts disappeared completely without relapse until Day 56 [6]: two out of six; start of tumor regrowth in the other mice [6]: ~ 4 weeks
